Columns and labels:
[1] = Single dose pharmacokinetics (PK) study in female BALB/c mice; type: in vivo
Protocol: The purpose of this study was to determine the pharmacokinetics of selected compounds following single intravenous bolus or oral gavage administration in female BALB/c mice. Briefly, two groups of female BALB/c mice (available from Shanghai Lingchang Biotechnology Co., Ltd)(N=3/group) were treated with a single dose of compound intravenously at 3 mg/kg (IV) or orally at 30 mg/kg (PO). Blood samples were collected at 5 min (only for IV), […], 30 min, 1 h, 2 h, 4 h, 7 h and 24 h post-dose. Blood samples were placed on ice until centrifugation to obtain plasma samples. The concentration of compound in plasma samples was determined using LC-MS/MS method. The pharmacokinetic parameters were calculated by non-compartmental analysis.

[2] = tested on: NCI-H358 cells (KRAS G12C); assay: Cell viability assay (Cell Counting Kit-8), KRAS G12C; type: cell-based; conditions: Homo sapiens, NCI-H358, 72 hrs
Outline: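 Cells seeded overnight at 5,000/well (NCI-H358) or 2,000/well (AGS, SW620), then exposed to compound for 72 hrs at 0.5% DMSO final. CCK-8 read as OD450 minus OD650 after 2 hrs; IC50 from 4-parameter sigmoidal fit.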

[3] = tested on: phosphorylation of ERK, KRAS G12V in SW620 cells; assay: pERK inhibition assay, KRAS G12V in SW620; type: cell-based, human; conditions: Homo sapiens, SW-620, SW620, 4 hours
Outline: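 NCI-H358 (G12C), AGS (G12D) and SW620 (G12V) cells in RPMI-1640/10% FBS, plated overnight, then treated 4 h with compound (0.5% DMSO final). Fixed, methanol-permeabilized; phospho-ERK detected by in-cell ELISA (anti-pERK, HRP secondary, TMB, OD450). IC50 from 4-parameter sigmoidal fit.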

[4] = tested on: Miapaca-2 KRAS G12C + V8A cells; assay: Stable KRAS mutant cell line viability assay (CellTiter-Glo), G12C + V8A; type: cell-based; conditions: Homo sapiens, MIA PaCa-2, 72 h, Miapaca-2 mutant cells, 3 d
Description: (§1) The aim of the study was to determine the potency and efficacy of compounds for cell proliferation using CellTiter-Glo® (CTG) Luminescent Cell Viability Assay (Promega Corp., Madison, WI). We cloned […] KRAS^G12C variant sequences with secondary mutations (V8A, V9Y, S17E, T58I, A59T, S65W, R68S, D69P, M72I, D92R, H95N, Y96D, Q99F, Q99W, Y96H, and F156L) into the Miapaca-2. Totally 14 stable Miapaca-2 mutant cell lines were established through lentivirus infection. For the cell viability assay, cells were dosed with compounds in a 9-point dose-response using a 4 fold dilution series at a top dose of 10 μM. KRAS mutant cells were maintained in DMEM+10% FBS+2.5% HI Horse serum+1% PS+1 μg/mL Puromycin and seeded into 96-well plates at 800-1,500 cells per well 24 h before compound addition and then incubated with compound for 3 d before assaying viability (CellTiter-Glo, Promega). Assays were performed in biological duplicates. Nonlinear regression curves were fitted using Xfit. IC50 (absolute IC50) is the dose at which the estimated viability is 50% relative to untreated wells.

[5] = tested on: Miapaca-2 KRAS G12C + S65W cells; assay: Stable KRAS mutant cell line viability assay (CellTiter-Glo), G12C + S65W; type: cell-based; conditions: Homo sapiens, MIA PaCa-2, 72 h, Miapaca-2 mutant cells, 3 d
Description: as §1

[6] = tested on: Miapaca-2 KRAS G12C + R68S cells; assay: Stable KRAS mutant cell line viability assay (CellTiter-Glo), G12C + R68S; type: cell-based; conditions: Homo sapiens, MIA PaCa-2, 72 h, Miapaca-2 mutant cells, 3 d
Description: as §1

[7] = tested on: Miapaca-2 KRAS G12C + D92R cells; assay: Stable KRAS mutant cell line viability assay (CellTiter-Glo), G12C + D92R; type: cell-based; conditions: Homo sapiens, MIA PaCa-2, 72 h, Miapaca-2 mutant cells, 3 d
Description: as §1

[8] = tested on: Miapaca-2 KRAS G12C + Y96D cells; assay: Stable KRAS mutant cell line viability assay (CellTiter-Glo), G12C + Y96D; type: cell-based; conditions: Homo sapiens, MIA PaCa-2, 72 h, Miapaca-2 mutant cells, 3 d
Description: as §1

[9] = mouse, 30 mg/kg, po, female BALB/c mice, plasma

CO[C@@H](C)c1ncc(N2CCN(CC(F)(F)F)CC2)cc1-c1c2c3cc(ccc3n1CC(F)(F)F)-c1csc(n1)C[C@H](NC(=O)[C@H](C(C)C)N(C)C(=O)N1CCOCC1)C(=O)N1CCC[C@H](N1)C(=O)OCC(C)(C)C2 (atropisomer, axis not shown; (M)) [Example 6]
F ([1]; 30 mg/kg, po, female BALB/c mice): 29.7%
AUC0-last compared with compound A555 ([1]; 30 mg/kg, po, mouse model): 15 folds
Cmax compared with compound A555 ([1]; 30 mg/kg, po, mouse model): ~7 folds
clearance ([1]; mouse, 3 mg/kg, iv, female BALB/c mice, plasma): 3.7 mL/min/kg
AUC(0-t) [1, 9]: 36800 ng·h/mL
Cmax [1, 9]: 4890 ng/mL
IC50 [2]: 5 nM
IC50 [3]: 2 nM
IC50 [4]: 2 nM
IC50 [5]: 6 nM
IC50 [6]: 34 nM
IC50 [7]: 5 nM
IC50 [8]: 7 nM
